# Entries after “also recorded” stand apart in the source; their conditions may differ.
# Assays:
# [1] = test system: NIH-3T3 cells infected with HA-HaloTag-H-RasG12V; assay: Focus formation assay, HA-HaloTag-H-RasG12V cells; type: cell-based, mouse; conditions: 1 μM, 1% FBS, day 6
# Description: One hundred thousand NIH-3T3 cells infected with HA-HaloTag-H-RasG12V and HA-HaloTag(D106A)-H-RasG12V were plated onto 10-cm cell culture plates in 10% FBS with DMEM. The next day, the media was replaced with 1% FBS media and the cells were administered either vehicle or 1 μM HyT13. The media and the drug were replaced every two days. On day 6, the foci were photographed and counted as the number of distinct foci per 1-cm^2 area.
# We next explored the functional utility of HaloTag-based degradation of an oncogene by HyT13 both in cell culture and in mice. The small GTPase H-Ras is one of the most commonly mutated genes in cancer, with up to […] of cancers harboring activating mutations in this gene^35. Activating mutations, such as the H-RasG12V allele, lead to decreased dependence on extracellular mitogenic signals. […] When H-RasG12V expressing cells are grown in culture under low serum conditions they lose cell-to-cell contact inhibition and form distinct foci instead of growing as a cellular monolayer. Furthermore, these transformed cells are capable of tumor formation when injected into immuno-compromised nude mice^36,37. We investigated whether (1) HaloTag-H-RasG12V driven focus formation can be suppressed in NIH-3T3 cells and (2) HaloTag-H-RasG12V driven tumor burden in mice can be reduced by administration of HyT13. […]
# [2] = test system: HEK293 or HeLa cells; assay: Cell viability with Resazurin (alamarBlue); type: cell-based; conditions: up to 20 μM, 24 hours
# Description: HEK293 or HeLa cells were treated with indicated concentrations of HyT13 for 24 hours. The oxidation-reduction indicator Resazurin (alamarBlue, Invitrogen) was employed to determine cell viability.
# [3] = target: T1, HA-HaloTag(D106A)-H-RasG12V (UniProt P01112+P0A3G2, C176G/D106A/G12V/H272F/K175M/Y273L); assay: Immunoblotting of HA-HaloTag(D106A)-H-RasG12V in NIH-3T3 cells; type: cell-based; conditions: 1 μM, 24 hours
# T1 construct: The HaloTag protein was obtained from pHT2 vector (Promega); H-Ras carrying G12V (fusion partner, same polypeptide); expressed in transfected cells; host or cells: NIH-3T3, retroviral infection (pEYK3.1)
# Description: (§1) (a) NIH-3T3 cells were retrovirally infected with a construct expressing either HA-HaloTag-HRas(G12V) or HA-HaloTag(D106A)-HRas(G12V). The cells were then treated with vehicle or 1 μM HyT13 for 24 hours. The lysates were prepared for immunoblotting and the blots were probed with anti-HA and anti-β-actin antibodies. (b) One hundred thousand NIH-3T3 cells infected with HA-HaloTag-HRas(G12V) or HA-HaloTag(D106A)-HRas(G12V) were plated in 10% FBS containing medium onto 10-cm plates. The next day, the medium was replaced with 1% FBS containing medium, along with vehicle or 1 μM HyT13. The media was refreshed every 2 days, and the plates were pictured on day 6. Bar, 5 mm. (c) Quantification of foci as described in (b). The number of foci/cm^2 was counted from three separate plates, with error bars representing SEM. […] Tumor size was measured daily, and the tumor volume was calculated. […]
# (§2) The indicated cells were washed twice with cold PBS and the cells were lysed in lysis buffer (1×PBS, 1% NP-40, 1 mM EDTA, 40 mM HEPES) with protease inhibitors. […] The total protein concentration was determined by Bradford assay and 50 μg of protein was loaded onto an 8% Bis-Tris gel. […] The blots were processed by standard procedures with indicated antibodies, and the band intensities were quantified by ImageJ. […]
# [4] = target: T2, HA-HaloTag-H-RasG12V (Rhodococcus rhodochrous, UniProt P0A3G2, C176G/H272F/K175M/Y273L); assay: Immunoblotting of HA-HaloTag-H-RasG12V in NIH-3T3 cells; type: cell-based; conditions: 1 μM, 24 hours
# T2 construct: The HaloTag protein was obtained from pHT2 vector (Promega); H-Ras carrying G12V (fusion partner, same polypeptide); expressed in transfected cells; host or cells: NIH-3T3, retroviral infection (pEYK3.1)
# Description: as §1, §2
# [5] = test system: transmembrane HA-HaloTag fusion proteins (Ror2, CD3E, CD9, GPR40, Frizzled-4); assay: Immunoblotting of transmembrane HA-HaloTag fusion proteins in HEK 293T cells; type: cell-based; conditions: 1 μM, 24 hours
# [6] = target: T3, HA-HaloTag-Smad5 (Rhodococcus rhodochrous, UniProt P0A3G2, C176G/H272F/K175M/Y273L); assay: Zebrafish embryo HA-HaloTag-Smad5 degradation (immunoblot); type: in vivo, Danio rerio; conditions: 10 μM, 24 hours
# T3 construct: The HaloTag protein was obtained from pHT2 vector (Promega); Danio rerio Smad5 (fusion partner); expressed in transfected cells; host or cells: zebrafish (TLF line) embryos injected with in vitro transcribed cRNA at the one-cell stage
# Description: The wild-type fish line TLF was used for this study. The HA-HaloTag-Smad5 in pCS2+ plasmid was in vitro transcribed with the SP6 transcription kit (Ambion). The mRNA was injected at 100 ng/μL at the one cell stage and embryos were raised to the 256-cell stage, when they were moved to glass depression slides (10-per-well) and put in 1 ml E2 media with or without HyT13 (10 μM). Embryos were cultured at 28.6° C. for 24 hours and then dechorionated and de-yolked as described^43. Approximately 60 embryos per condition were collected for immunoblot analysis, as described above.
# We also explored the possibility of employing the hydrophobic tagging system in the zebrafish Danio rerio. We injected HA-HaloTag-Smad5 cRNA into zebrafish embryos and then treated the embryos with either vehicle or HyT13.
structure (smiles),measurement,setting,value
"O=C(CC12CC3CC(CC(C3)C1)C2)NCCOCCOCCCCCCCl [HyT13, 2-((3r,5r,7r)-Adamantan-1-yl)-N-(2-(2-((6-chlorohexyl)oxy)ethoxy)ethyl)acetamide]",focus formation,[1],had grown a normal monolayer of cells
same,cellular toxicity,[2],No cellular toxicity was observed; also recorded: lack of noticeable HyT13 cytotoxicity; also recorded: exhibits no toxicity
same,degradation of HA-HaloTag(D106A)-H-RasG12V,[3],unaffected
same,degradation of HA-HaloTag-H-RasG12V,[4],readily degraded
same,degradation of transmembrane HaloTag fusion proteins,[5],efficiently induced their degradation
same,degradation of fusion protein in zebrafish embryos,[6],very efficiently degraded

# Source: patent publication US10145848B2, “Small-molecule hydrophobic tagging of fusion proteins and induced degradation of same” (YALE UNIVERSITY, priority 2010, dated 2018)
